The results in this text go back to patent US20060088472A1, “E7 regulation of p21 cip1 through akt” (priority 2002, published 2006).

The chains are these.
B1: p21^Cip1 (endogenous, in lysates of RafAR-expressing NIH3T3 cells) (other, UniProt P39689 2-159, looked up)
chain: SNPGDVRPVPHRSKVCRCLFGPVDSEQLRRDCDALMAGCLQEARERWNFDFVTETPLEGNFVWERVRSLGLPKVYLSPGSRSRDDLGGDKRPSTSSALLQGPAPEDHVALSLSCTLVSERPEDSPGGPGTSQGRKRRQTSLTDFYHSKRRLVFCKRKP
notes: also called p21^Cpi1

In assay [1] the test system is Akt phosphorylated on serine 473 (P-Akt). Type of assay: cell-based, murine. The method, then:
The drugs and R1881 were added at 0 hr and the samples were taken at 6 hrs post-treatment.
Immunoblotting and immunoprecipitations (IP). Cell pellets were lysed in HLB lysis buffer (50 mM Tris pH 8.0, 150 mM NaCl, 1% Triton X-100, 1 mM DTT, and protease inhibitor cocktail (Sigma P8340)) for 30 minutes with vortexing. After centrifugation, protein content was quantitated via a standard BioRad Bradford assay. For immunoblotting, 30-50 μg of cell lysate was separated by sodium dodecyl sulfate-polyacrylamide gel electrophoresis (SDS-PAGE) and transferred onto nitrocellulose membrane (Schleicher and Schuell). After incubation with primary and secondary antibodies, antigen detection was performed using the enhanced chemiluminescence kit from NEN. The following antibodies were obtained from Santa Cruz: α-cyclin D1 (sc-450, Western), α-cyclin D2 (sc-593, Western), α-cyclin E (sc-481, IP and Western), α-human cyclin E (sc-198, IP and Western), α-CDK2 (sc-163 g, IP and Western), α-CDK4 (sc-260, IP and Western), α-p21^Cip1 (sc-6246, Western), α-p21^Cip1 (sc-397, IP and immunofluorescence), and a-phospho-threonine (sc-5267, Western). HPV-16 E7-specific and RB-specific antibodies were purchased from Zymed and Pharmingen, respectively. Antibodies recognizing Akt or Akt phosphorylated at serine-473 were obtained from Cell Signaling. For immunoprecipitations, cell lysates were incubated with primary antibodies for 2 hours at 4° C., and immune-complexes were collected on Protein A-agarose beads (Santa Cruz) for an additional 1 hour. The complexes were washed four times with HLB buffer and resolved by 12% SDS-PAGE for immunoblotting.
c-Raf-1 was induced by addition of the androgen analog R1881, as described herein and the cells harvested at various times thereafter.

Assay [2] deals with NIH3T3 cells stably expressing the RafAR fusion protein. In words: Cell cycle analysis (BrdU incorporation / propidium iodide) in RafAR-expressing NIH3T3 cells. Type of assay: cell-based, murine. Particulars: control cells (Babe), RafAR activation with 1.0 μM R1881, 30 hours. Here is the method:
(A) NIH3T3 cells stably expressing the RafAR fusion protein were infected with amphotrophic retroviruses expressing HPV-16 E7 (E7) or empty vector (Babe). Lysates were prepared and 100 μg of protein was resolved by 15% SDS-PAGE, transferred to nitrocellulose membrane, and probed with a monoclonal antibody directed against HPV-16 E7. (B and C) Pools of Babe- or E7-expressing cells growing in DMEM plus 10% NCS were treated with 0.02% ethanol (−) or 1.0 μM R1881 (+) for 30 hours and pulsed with BrdU for 30 minutes. Cells were trypsinized, fixed in 70% ethanol, and stained with propidium iodide (PI) for detection of total DNA content (B) and with α-BrdU-FITC for detection of DNA synthesis (C).
(A) E7-expressing cells were treated for 30 hours with 1.0 μM R1881 in the absence or presence of increasing concentrations of LY294002 (50 μM, 100 μM, 200 μM), an inhibitor of PI-3K activity. DNA synthesis was measured via BrdU incorporation. (B) E7-expressing cells were treated with 1.0 uM R1881 in the presence or absence of 100 uM LY294002, stained with p21^Cip1-specific antibody, and quantitated for nuclear p21^Cip1 localization as in FIG. 7. […] Cells were stained with α-BrdU, and GFP-positive cells were scored for BrdU incorporation via indirect immunofluorescence. Percentages of BrdU incorporation were calculated by defining the number obtained from vehicle-treated cells as 100%. […]
For orientation: Incorporation of labelled thymidine or its analogues reports DNA synthesis.

The subject of a further assay is RafAR-expressing NIH3T3. As to the kind of experiment: Cell morphology after RafAR activation in NIH3T3. The format is cell-based, murine. Conditions: RafAR activation with 1.0 μM R1881.
Assay [3] deals with human foreskin keratinocytes (HFK). In words: Adriamycin DNA damage in control or E7-expressing HFK, Western blots for active Akt and p21^CIP. The format is cell-based. Particulars: 0.1 mM Adriamycin, 17 hours.
The subject of assay [4] is p27^Kip1 nuclear localization. In words: p27^Kip1 localization by immunofluorescence in TGF-β treated tet-E7 Mv1Lu cells. The format is cell-based, mink. Conditions: 3 ng/mL TGF-β, 24 hours, absence of E7. Here is the method:
(A) Tet-E7 Mv1Lu cells were treated for 24 hours with 2 μg/mL doxycycline or vehicle. Cell lysates were analyzed by Western blotting with antibody specific for HPV16 E7. (B) Tet-E7 Mv1Lu cells were treated for 24 hours with 3 ng/mL TGF-β in the presence or absence of 2 μg/mL doxycycline and subsequently analyzed for p27^Kip1 expression via Western blot. (C, D) Tet-E7 Mv1Lu cells were treated as in (B), fixed with 3.7% paraformaldehyde, and stained with p27^Kip1 specific antibody as described in Materials and Methods. (C) Representative fluorescent (left panels) and phase contrast (right panels) micrographs of TGF-β treated cells in the absence (upper panels) or presence (lower panels) of doxycycline. […] The number of cells with nuclear p27^Kip1 accumulation is represented as a percentage of total cells counted. The average and deviation values shown are from two independent experiments with at least 200 cells counted per experiment.
Cell culture. NIH3T3 cells stably expressing the RafAR fusion protein have been described previously (Sewing et al., 1997). This cell line and all derivatives were cultured in DMEM without phenol red (GIBCO-BRL) supplemented with 10% charcoal-stripped newborn calf serum (NCS, Hyclone). […]
Immunofluorescence. […] Antigen staining was visualized by inverted fluorescence microscopy (Olympus CK40), and images were captured with Quality Imaging camera and software. […]

In assay [5] the target is cyclin E (endogenous, in lysates of RafAR-NIH3T3 cells) (UniProt Q61457 1-408). As to the kind of experiment: cyclin E immunoprecipitation, p21^Cip1 Western blot. Background: Immunoblotting shows a protein as a band on a membrane.
The target in assay [6] is B1. In words: GST pull-down from control cell lysate, Western blot.
The target of assay [7] is T1, RB (retinoblastoma protein, endogenous, in lysate of RafAR-NIH3T3 control cells) (UniProt P13405 2-921).
T1 sequence: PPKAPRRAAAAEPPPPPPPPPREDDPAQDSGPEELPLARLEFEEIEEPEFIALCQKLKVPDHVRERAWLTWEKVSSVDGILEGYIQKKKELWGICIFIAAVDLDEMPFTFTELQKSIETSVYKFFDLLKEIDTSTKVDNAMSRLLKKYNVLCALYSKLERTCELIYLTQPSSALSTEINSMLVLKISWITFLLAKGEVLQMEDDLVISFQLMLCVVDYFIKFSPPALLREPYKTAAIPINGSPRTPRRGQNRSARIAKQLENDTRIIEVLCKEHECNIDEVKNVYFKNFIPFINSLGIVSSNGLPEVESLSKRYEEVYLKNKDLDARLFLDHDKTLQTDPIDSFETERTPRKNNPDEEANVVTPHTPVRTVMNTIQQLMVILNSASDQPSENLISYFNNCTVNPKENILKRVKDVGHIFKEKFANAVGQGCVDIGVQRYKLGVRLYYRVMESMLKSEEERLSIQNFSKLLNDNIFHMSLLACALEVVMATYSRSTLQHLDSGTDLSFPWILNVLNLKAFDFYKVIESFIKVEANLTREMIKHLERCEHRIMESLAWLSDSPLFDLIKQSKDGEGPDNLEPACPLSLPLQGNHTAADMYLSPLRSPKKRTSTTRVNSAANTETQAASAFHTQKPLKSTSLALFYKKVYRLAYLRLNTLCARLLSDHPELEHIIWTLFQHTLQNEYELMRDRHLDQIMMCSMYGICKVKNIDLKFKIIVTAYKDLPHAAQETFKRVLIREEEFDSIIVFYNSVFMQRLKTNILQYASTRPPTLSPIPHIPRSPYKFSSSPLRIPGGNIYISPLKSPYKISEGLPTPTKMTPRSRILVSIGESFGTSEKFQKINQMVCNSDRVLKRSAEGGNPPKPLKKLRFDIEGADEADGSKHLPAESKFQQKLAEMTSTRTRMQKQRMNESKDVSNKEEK
The assay is described as above.

The mark [8] stands for this setting: drug added with R1881 at 0 hr, samples taken 6 hrs post-treatment.

Where two headings read alike, the source gives them in different places. Residues, ends and D or L forms follow the SMILES beside them. *: point of attachment. Cbz = O=C(OCc1ccccc1)*

On to `CC(C)C[C@@H](C=O)NC(=O)[C@H](CC(C)C)NC(=O)[C@H](CC(C)C)NC(=O)OCc1ccccc1` [MG132] (Cbz-Leu-Leu-Leu-aldehyde), for which, in assay [1] (setting [8]), the “down-regulation of active Akt (P-Akt) on induction of c-Raf-1” value is “down-regulation of P-Akt was similar to control cells”.
On to `C[C@]1(O)CC[C@H]2[C@@H]3CCC4=CC(=O)CCC4=C3C=C[C@@]21C` [R1881, methyltrienolone], for which, in assay [2], the DNA synthesis entry is recorded as “inhibition of DNA synthesis” and the “cells accumulating in G1” value is reported as greater than 85%. Further, in assay [1] (c-Raf-1 induced by R1881), the “time post-treatment at which down-regulation of active Akt (P-Akt) is observed” value was no more than 5 h and the “time post-treatment at which total Akt protein levels decrease” value lay within 19 to 26 h. The cell morphology entry with RafAR-expressing NIH3T3 is “morphological changes including elongation and development of extended processes”.
On to `N#CC(=C(/N)Sc1ccccc1N)/C(C#N)=C(\N)Sc1ccccc1N` [U0126], for which, in assay [1], the “basal level of active Akt” value was “increased” and the “down-regulation of active Akt (P-Akt) on induction of c-Raf-1” value is reported as “down-regulation is inhibited”.
On to `COc1cccc2c1C(=O)c1c(O)c3c(c(O)c1C2=O)C[C@@](O)(C(=O)CO)C[C@@H]3O[C@H]1C[C@H](N)[C@H](O)[C@H](C)O1` [adriamycin], for which, in assay [3], the “active Akt levels after adriamycin treatment” value is listed as “maintained only in E7-expressing cells” and the “p21^CIP levels after adriamycin treatment” value is listed as “increased”.
For the molecule `C[C@@H]1C[C@@H]([C@H](O)CC2CC(=O)NC(=O)C2)C(=O)[C@@H](C)C1` [cyclohexamide], the “down-regulation of active Akt (P-Akt) on induction of c-Raf-1” value in assay [1] (setting [8]) was “inhibited the down-regulation of Akt”.
Consider TGF-β, for which the “nuclear accumulation of p27^Kip1” value in assay [4] is “robust nuclear accumulation”.
On to B1, for which the binding result in assay [5] is recorded as “binds”.

B2: purified recombinant GST-E7 (HPV16 E7) (other)
chain: MHGDTPTLHEYMLDLQPETTDLYCYEQLNDSSEEEDEIDGPAGQAEPDRAHYNIVTFCCKCDSTLRLCVQSTHVDIRTLEDLLMGTLGIVCPICSQKP
For B2, the binding result is given as “no binding” in assay [6] and “binds” in assay [7].
